Data as given in patent publication US11179391B2, “Compound with kinase inhibitory activity and preparation method and use thereof” (priority 2017, dated 2021).

Assays:
CDK6/cycD3 = CDK6/cycD3 (Homo sapiens, UniProt Q00534); experiment: Determination of CDK activity (Caliper mobility shift, FAM-P8 peptide): CDK6; type: biochemical; conditions: CDK6/cycD3; read-out: CDK6 enzymatic inhibitory activity (IC50)
Outline: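 GST-CDK6(1-326)/cycD3 with FAM-P8 peptide and ATP, after 10 min room-temperature enzyme–compound preincubation; reaction at 28 °C, then EDTA stop. Substrate conversion read by Caliper mobility shift; inhibition from no-compound and no-enzyme controls, IC50 fitted over 10-point dilution in DMSO.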

CDK4/CycD3 = CDK4/CycD3 (Homo sapiens, UniProt P11802); experiment: Determination of CDK activity (Caliper mobility shift, FAM-P8 peptide): CDK4; type: biochemical; conditions: CDK4/CycD3; read-out: CDK4 enzymatic inhibitory activity (IC50)
Outline: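 GST-CDK4(1-303)/GST-CycD3(1-292) was preincubated with compound for 10 min at room temperature, then FAM-P8 peptide and ATP were added; the reaction ran at 28 °C and was stopped with EDTA-containing stop buffer. Peptide conversion was read by Caliper mobility shift. A 10-point dilution series was fitted for IC50.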

CDK2/CycA2 = CDK2/CycA2 (Homo sapiens, UniProt P24941); experiment: Determination of CDK activity (Caliper mobility shift, FAM-P8 peptide): CDK2; type: biochemical; conditions: CDK2/CycA2; read-out: CDK2 enzymatic inhibitory activity (IC50)
[1] = system: Human breast cancer MCF-7 cells; experiment: Pharmacodynamic study on mouse MCF-7 model (subcutaneous xenograft); type: in vivo, BALB/c nude mice; conditions: for Tumor volume (day 0) / antitumor effect compared with Abemaciclib (in words) / Tumor volume (day 14) / T/C relative tumor proliferation rate / TGI tumor growth inhibition rate: MCF-7 model; for Tumor volume (day 0): baseline at start of dosing; for Tumor volume (day 0) / Tumor volume (day 14) / T/C relative tumor proliferation rate / TGI tumor growth inhibition rate: mesylate, 30 mg/kg PO × 14 days; for antitumor effect compared with Abemaciclib (in words): same dosage (30 mg/kg PO × 14 days); for T/C relative tumor proliferation rate / TGI tumor growth inhibition rate: day 14; for inhibitory effect on the tumor growth (in words): MCF-7 nude mouse model, 30 mg/kg, continuous PO administration for 14 days
CDK9/cyclinTl = CDK9/cyclinTl (Homo sapiens, UniProt P50750); experiment: Determination of CDK activity (Caliper mobility shift, FAM-P8 peptide): CDK9; type: biochemical; conditions: CDK9/cyclinTl; read-out: CDK9 enzymatic inhibitory activity (IC50)
CDK9/cyclinTl, sequence (P50750 whole entry): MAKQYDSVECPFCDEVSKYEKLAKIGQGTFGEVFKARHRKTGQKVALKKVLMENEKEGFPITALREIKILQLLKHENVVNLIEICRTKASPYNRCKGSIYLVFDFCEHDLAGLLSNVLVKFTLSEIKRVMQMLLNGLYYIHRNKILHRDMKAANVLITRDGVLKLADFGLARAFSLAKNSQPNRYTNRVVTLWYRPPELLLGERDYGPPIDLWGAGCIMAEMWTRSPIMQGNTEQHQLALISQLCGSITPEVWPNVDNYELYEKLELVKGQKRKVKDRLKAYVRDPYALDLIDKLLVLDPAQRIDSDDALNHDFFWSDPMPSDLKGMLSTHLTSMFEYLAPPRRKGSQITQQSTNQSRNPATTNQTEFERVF
CDK9/cyclinTl, sequence (O60563 whole entry partner): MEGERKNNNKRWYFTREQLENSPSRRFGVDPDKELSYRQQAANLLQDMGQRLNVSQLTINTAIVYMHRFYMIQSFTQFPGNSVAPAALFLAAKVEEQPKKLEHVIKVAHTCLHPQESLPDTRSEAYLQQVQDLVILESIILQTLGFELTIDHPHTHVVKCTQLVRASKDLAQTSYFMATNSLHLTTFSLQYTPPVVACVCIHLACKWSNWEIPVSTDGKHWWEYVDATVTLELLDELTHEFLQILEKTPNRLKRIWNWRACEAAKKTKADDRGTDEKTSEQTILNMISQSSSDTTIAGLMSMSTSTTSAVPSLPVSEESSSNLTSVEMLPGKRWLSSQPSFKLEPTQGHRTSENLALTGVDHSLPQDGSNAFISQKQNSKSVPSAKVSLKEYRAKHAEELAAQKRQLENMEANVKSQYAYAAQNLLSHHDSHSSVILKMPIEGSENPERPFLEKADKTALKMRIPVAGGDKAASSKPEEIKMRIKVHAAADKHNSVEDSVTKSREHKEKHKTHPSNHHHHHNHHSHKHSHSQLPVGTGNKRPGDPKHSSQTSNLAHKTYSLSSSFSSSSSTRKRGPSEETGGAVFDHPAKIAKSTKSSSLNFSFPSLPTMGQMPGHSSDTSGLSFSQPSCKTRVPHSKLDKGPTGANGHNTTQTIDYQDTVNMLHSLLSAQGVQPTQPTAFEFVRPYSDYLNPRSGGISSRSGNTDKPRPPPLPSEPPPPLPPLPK

CDK6/cycD3, sequence (Q00534 whole entry): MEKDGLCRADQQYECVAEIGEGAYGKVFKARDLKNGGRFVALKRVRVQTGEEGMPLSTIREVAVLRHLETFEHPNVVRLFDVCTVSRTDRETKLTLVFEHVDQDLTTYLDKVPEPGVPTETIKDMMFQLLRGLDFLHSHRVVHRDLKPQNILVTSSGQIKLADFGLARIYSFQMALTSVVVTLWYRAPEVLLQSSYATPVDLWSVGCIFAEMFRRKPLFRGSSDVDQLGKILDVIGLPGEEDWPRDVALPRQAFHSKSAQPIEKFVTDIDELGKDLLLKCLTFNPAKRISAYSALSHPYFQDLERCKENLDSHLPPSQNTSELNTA
CDK6/cycD3, sequence (P30281 whole entry partner): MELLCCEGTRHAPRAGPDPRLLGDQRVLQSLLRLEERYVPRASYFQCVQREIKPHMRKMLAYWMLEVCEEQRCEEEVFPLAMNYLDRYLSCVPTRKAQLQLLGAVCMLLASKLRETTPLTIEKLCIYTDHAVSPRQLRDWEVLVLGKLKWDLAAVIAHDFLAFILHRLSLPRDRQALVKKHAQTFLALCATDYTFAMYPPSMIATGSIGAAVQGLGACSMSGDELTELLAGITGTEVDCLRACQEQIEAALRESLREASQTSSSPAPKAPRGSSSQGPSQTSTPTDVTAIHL
CDK4/CycD3, sequence (P11802 whole entry): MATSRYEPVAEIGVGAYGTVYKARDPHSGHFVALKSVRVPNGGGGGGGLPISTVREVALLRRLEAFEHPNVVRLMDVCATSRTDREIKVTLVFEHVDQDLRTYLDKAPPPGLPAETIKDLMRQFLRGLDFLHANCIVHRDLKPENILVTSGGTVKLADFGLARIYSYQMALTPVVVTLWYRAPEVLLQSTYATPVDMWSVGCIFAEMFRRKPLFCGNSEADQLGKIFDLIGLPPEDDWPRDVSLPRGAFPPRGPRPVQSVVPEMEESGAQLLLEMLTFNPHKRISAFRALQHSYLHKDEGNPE
CDK4/CycD3, sequence (P30281 whole entry partner): as the sequence (P30281 whole entry partner) above

| Compound | IC50 (CDK6/cycD3) [nM] | IC50 (CDK4/CycD3) [nM] | IC50 (CDK2/CycA2) [nM] | Tumor volume (day 0) [1] [mm^3] | antitumor effect compared with Abemaciclib (in words) [1] | Tumor volume (day 14) [1] [mm^3] | T/C relative tumor proliferation rate [1] [%] | TGI tumor growth inhibition rate [1] [%] | inhibitory effect on the tumor growth (in words) [1] | IC50 (CDK9/cyclinTl) [nM] |
| --- | --- | --- | --- | --- | --- | --- | --- | --- | --- | --- |
| CCN1CCC(C(C)c2ccc(Nc3ncc(F)c(-c4cc(F)c5nc(C)n(C(C)C)c5c4)n3)nc2)CC1 (single isomer, unassigned) [Example 17, (R or S)—N-(5-(1-(1-ethylpiperidin-4-yl)ethyl)pyridin-2-yl)-5-fluoro-4-(4-fluoro-1-isopropyl-2-methyl-1H-benzo[d]imidazol-6-yl) pyrimidin-2-amine] | < 100 | < 100 | < 100 | 210 | better antitumor effects than positive control compound Abemaciclib | 216 | 0.9 | 99.1 | strong inhibitory effect | 100 to 500 |
| CCN1CCC(=Cc2ccc(Nc3ncc(F)c(-c4cc(F)c5nc(C)n(C(C)C)c5c4)n3)nc2)CC1 [Example 57, N-(5-((1-ethylpiperidin-4-ylidene)methyl)pyridin-2-yl)-5-fluoro-4-(4-fluoro-1-isopropyl-2-methyl-1H-benzo[d]imidazol-6-yl)pyrimidin-2-amine] | < 100 | < 100 | < 100 | 209 | better antitumor effects than positive control compound Abemaciclib | 290 | 12.5 | 87.5 | strong inhibitory effect | < 100 |
